Measured values taken from PMC8718112, “Functional independence of endogenous μ- and δ-opioid receptors co-expressed in cholinergic interneurons” (eLife, 2021).

Target: T1, δ-opioid receptor (DOR) (Mus musculus, UniProt P32300)
T1 construct: gene Oprd1; endogenous receptor on cholinergic interneurons in mouse brain slices
Assay: cell-attached recording of firing inhibition reversed by SDM25N; internalization of labeled receptors
Type: cell-based

T1 sequence (P32300 whole entry): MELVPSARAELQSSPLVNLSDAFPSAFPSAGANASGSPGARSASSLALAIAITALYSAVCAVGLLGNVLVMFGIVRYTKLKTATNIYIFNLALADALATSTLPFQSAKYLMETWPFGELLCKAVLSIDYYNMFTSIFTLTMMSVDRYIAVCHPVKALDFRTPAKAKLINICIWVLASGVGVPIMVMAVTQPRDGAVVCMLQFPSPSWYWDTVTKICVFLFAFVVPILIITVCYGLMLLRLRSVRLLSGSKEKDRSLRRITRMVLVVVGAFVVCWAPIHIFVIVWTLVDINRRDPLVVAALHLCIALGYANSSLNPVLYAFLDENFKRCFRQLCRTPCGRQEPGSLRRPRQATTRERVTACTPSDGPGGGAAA

`CC(C)[C@H](NC(=O)[C@H](CCC(=O)O)NC(=O)[C@H](Cc1ccccc1)NC(=O)[C@@H](C)NC(=O)[C@@H](N)Cc1ccc(O)cc1)C(=O)N[C@H](C(=O)NCC(N)=O)C(C)C` [deltorphin II] gave an inhibition at 1 µM of 96.6 ± 2.7%.
